Test results from ChEMBL document CHEMBL1146114, “A new class of bradykinin 1 receptor antagonists containing the piperidine acetic acid tetralin core” (Bioorg Med Chem Lett, 2006).

What was measured:
[1] = target: T1, B1 bradykinin receptor (Homo sapiens, UniProt P46663); assay: Inhibition of human B1 receptor
T1 sequence (P46663 whole entry): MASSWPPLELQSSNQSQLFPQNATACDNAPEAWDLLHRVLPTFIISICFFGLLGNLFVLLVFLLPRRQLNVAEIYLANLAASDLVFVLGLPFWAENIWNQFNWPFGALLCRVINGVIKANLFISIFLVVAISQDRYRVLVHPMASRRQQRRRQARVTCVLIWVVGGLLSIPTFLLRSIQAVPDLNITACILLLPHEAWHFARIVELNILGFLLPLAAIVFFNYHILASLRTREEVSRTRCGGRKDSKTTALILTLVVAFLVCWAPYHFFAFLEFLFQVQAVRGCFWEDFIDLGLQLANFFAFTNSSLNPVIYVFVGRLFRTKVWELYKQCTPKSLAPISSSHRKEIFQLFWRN

[2] = target: T1, B1 bradykinin receptor; assay: Inhibition of human B1 receptor by calcium influx functional assay
[3] = Half life in rat at 1 mg/kg, iv; format: ADME, organism-based; set-up: dose 1 mg/kg, route intravenous; details: in vivo
[4] = Clearance in rat at 1 mg/kg, iv; format: ADME, organism-based; set-up: dose 1 mg/kg, route intravenous; details: in vivo
[5] = Volume of distribution in rat at 1 mg/kg, iv; format: ADME, organism-based; set-up: dose 1 mg/kg, route intravenous; details: in vivo, read-out: Vss
[6] = Oral bioavailability in rat at 10 mg/kg, po; format: ADME, organism-based; details: in vivo

Row | Structure (SMILES) | IC50 [1] [nM] | IC50 [2] [nM] | also measured
1 | CC(C)(C)CNCc1ccc2c(c1)CCC[C@H]2NC(=O)C[C@@H]1CCCCN1S(=O)(=O)c1cccc(C(F)(F)F)c1 | 59 | 230 | –
2 | COc1ccc(S(=O)(=O)N2CCCC[C@H]2CC(=O)N[C@@H]2CCCc3cc(CNC(C)(C)C)ccc32)cc1 | 780 | 1400 | –
3 | CC(C)(C)NCc1ccc2c(c1)CCC[C@H]2NC(=O)C[C@@H]1CCCCN1S(=O)(=O)c1cccc2cccnc12 | 220 | 440 | –
4 | CC(C)(C)NCc1ccc2c(c1)CCC[C@H]2NC(=O)C[C@@H]1CCCCN1S(=O)(=O)c1cccc2cnccc12 | 610 | 4300 | –
5 | CN(C)Cc1ccc2c(c1)CCC[C@H]2NC(=O)C[C@@H]1CCCCN1S(=O)(=O)c1cccc(C(F)(F)F)c1 | 62 | 160 | –
6 | O=C(C[C@@H]1CCCCN1S(=O)(=O)c1cccc(C(F)(F)F)c1)N[C@@H]1CCCc2cc(CNC3CC3)ccc21 | 48 | 47 | –
7 | Cn1cnc(S(=O)(=O)N2CCCC[C@H]2CC(=O)N[C@@H]2CCCc3cc(CNC(C)(C)C)ccc32)c1 | > 100000 | > 40000 | –
8 | CC(C)NCc1ccc2c(c1)CCC[C@H]2NC(=O)C[C@@H]1CCCCN1S(=O)(=O)c1cccc(C(F)(F)F)c1 | 72 | 110 | –
9 | CC(C)(C)NCc1ccc2c(c1)CCC[C@H]2NC(=O)C[C@@H]1CCCCN1S(=O)(=O)c1ccc(Cl)cc1 | 560 | 810 | –
10 | CC(C)(C)NCc1ccc2c(c1)CCC[C@H]2NC(=O)C[C@@H]1CCCCN1S(=O)(=O)c1csc2ccccc12 | 14 | 66 | –
11 | CC(C)(C)NCc1ccc2c(c1)OCC[C@H]2NC(=O)C[C@@H]1CCCN1S(=O)(=O)c1cccc(C(F)(F)F)c1 | 1500 | 960 | –
12 | CC(C)(C)NCc1ccc2c(c1)OCC[C@H]2NC(=O)C[C@@H]1CCCCN1S(=O)(=O)c1cccc(C(F)(F)F)c1 | 160 | 95 | –
13 | O=C(C[C@@H]1CCCCN1S(=O)(=O)c1cccc(C(F)(F)F)c1)N[C@@H]1CCCc2cc(CNCC(F)(F)F)ccc21 | 1900 | 700 | –
14 | CC(C)(C)NCc1ccc2c(c1)CCC[C@H]2NC(=O)C[C@@H]1CCCCN1S(=O)(=O)c1ccc(C(F)(F)C(F)(F)F)cc1 | 360 | 210 | –
15 | Cc1ccc(S(=O)(=O)N2CCCC[C@H]2CC(=O)N[C@@H]2CCCc3cc(CNC(C)(C)C)ccc32)cc1C(F)(F)F | 11 | 16 | –
16 | CC(C)(C)NCc1ccc2c(c1)CCC[C@H]2NC(=O)C[C@@H]1CCCCN1S(=O)(=O)c1ccccc1 | 1700 | 2400 | –
17 | Cc1ccc(S(=O)(=O)N2CCCC[C@H]2CC(=O)N[C@@H]2CCCc3cc(CNC(C)(C)C)ccc32)cc1 | 93 | 130 | –
18 | O=C(C[C@@H]1CCCCN1S(=O)(=O)c1cccc(C(F)(F)F)c1)N[C@@H]1CCCc2cc(CN3CCC3)ccc21 | 1100 | 4300 | –
19 | O=C(C[C@@H]1CCCCN1S(=O)(=O)c1cccc(C(F)(F)F)c1)N[C@@H]1CCCc2cc(CNCC3CC3)ccc21 | 16 | 31 | –
20 | CC(C)(C)NCc1ccc2c(c1)CCC[C@H]2NC(=O)C[C@@H]1CCCCN1S(=O)(=O)c1cccc(C(F)(F)F)c1 | – | – | half-life [3]: 2 h; clearance [4]: 36.7 mL/min/kg; Vd [5]: 5.4 L/kg; bioavailability [6]: 19%
21 | COCCNCc1ccc2c(c1)CCC[C@H]2NC(=O)C[C@@H]1CCCCN1S(=O)(=O)c1cccc(C(F)(F)F)c1 | 21 | 46 | –
22 | CC(C)(C)NCc1ccc2c(c1)CCC[C@H]2NC(=O)C[C@@H]1CCCCN1S(=O)(=O)c1cccc(Cl)c1 | 120 | 73 | –
23 | Cc1ccc(S(=O)(=O)N2CCCC[C@H]2CC(=O)N[C@@H]2CCCc3cc(CNC(C)(C)C)ccc32)cc1Cl | 15 | 22 | –
24 | CC(C)(C)NCc1ccc2c(c1)CCC[C@H]2NC(=O)C[C@@H]1CCCCN1S(=O)(=O)c1cccc2nsnc12 | 150 | 180 | –
25 | CCCCOc1ccc(S(=O)(=O)N2CCCC[C@H]2CC(=O)N[C@@H]2CCCc3cc(CNC(C)(C)C)ccc32)cc1 | 1200 | 590 | –
26 | CC(C)(C)NCc1ccc2c(c1)CCC[C@H]2NC(=O)C[C@@H]1CCCCN1S(=O)(=O)c1ccc(-c2ccccc2)cc1 | 690 | 540 | –
27 | CC(C)CNCc1ccc2c(c1)CCC[C@H]2NC(=O)C[C@@H]1CCCCN1S(=O)(=O)c1cccc(C(F)(F)F)c1 | 13 | 42 | –
28 | O=C(C[C@@H]1CCCCN1S(=O)(=O)c1cccc(C(F)(F)F)c1)N[C@@H]1CCCc2cc(CNC3CCC3)ccc21 | 58 | 54 | –
